In patent US20240124442A1, “TRICYCLIC-AMIDO-BICYCLIC PRMT5 INHIBITORS” (AMGEN INC., priority 2021, published 2024):

How the values were obtained:
HCT116 MTAP null cells = experiment: HCT116 MTAP null cell line proliferation / cell viability (CellTiter-Glo, 6 days); format: cell-based; conditions: 144 h; HCT116 MTAP null cells, 6 days treatment, CellTiter-Glo cell viability; read-out: HCT-116 MTAP null IC50
In short: (§1)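 Isogenic HCT116 pair (parental and MTAP-knockout) in RPMI 1640 + 10% FBS, treated 6 days with 8–9-point 1:3 dilutions from 1 or 10 μM top, or 22-point 1:2 dilutions from 10 or 50 μM top. Viability by CellTiter-Glo luminescence; IC50 from 4-parameter logistic fit or sigmoidal fit with Hill slope fixed at −1.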

HCT116 WT cells = experiment: HCT116 WT (parent) cell line proliferation / cell viability (CellTiter-Glo, 6 days); format: cell-based; conditions: Homo sapiens, HCT-116, 144 h, 6 days treatment
In short: as §1

SMILES	IC50 (HCT116 MTAP null cells) [µM]	IC50 (HCT116 WT cells) [µM]
CN(C(=O)c1cc2c(cc1F)nc(N)c1cnn(C)c12)[C@@H]1COCc2cc(C(F)(F)F)ccc21 [Example 506, 4-amino-7-fluoro-N,1-dimethyl-N-((4S)-7-(trifluoromethyl)-3,4-dihydro-1H-2-benzopyran-4-yl)-1H-pyrazolo[4,3-c]quinoline-8-carboxamide]	0.004	0.034
CN(C(=O)c1cc2c(cc1F)nc(N)c1cnn(C)c12)[C@@H]1COCc2nc(C(F)(F)F)ccc21 [Example 507, 4-amino-7-fluoro-N,1-dimethyl-N-((5S)-2-(trifluoromethyl)-5,8-dihydro-6H-pyrano[3,4-b]pyridin-5-yl)-1H-pyrazolo[4,3-c]quinoline-8-carboxamide]	0.008	0.162
CCN(C(=O)c1cc2c(cc1F)nc(N)c1cnn(C)c12)[C@@H]1COCc2nc(C(F)(F)F)ccc21 [Example 508, 4-amino-N-ethyl-7-fluoro-1-methyl-N-((5S)-2-(trifluoromethyl)-5,8-dihydro-6H-pyrano[3,4-b]pyridin-5-yl)-1H-pyrazolo[4,3-c]quinoline-8-carboxamide]	0.005	0.043
CN(C(=O)c1ccc2nc(N)c3c(cnn3C)c2c1)[C@@H]1COCc2cc(C#N)ccc21 [Example 509, 4-amino-N-((4S)-7-cyano-3,4-dihydro-1H-2-benzopyran-4-yl)-N,3-dimethyl-3H-pyrazolo[3,4-c]quinoline-8-carboxamide]	0.107	8.11
CN(C(=O)c1ccc2nc(N)c3c(cnn3C)c2c1)[C@@H]1COCc2cc(C(F)(F)F)ccc21 [Example 510, 4-amino-N,3-dimethyl-N-((4S)-7-(trifluoromethyl)-3,4-dihydro-1H-2-benzopyran-4-yl)-3H-pyrazolo[3,4-c]quinoline-8-carboxamide]	0.048	4.59
CN(C(=O)c1ccc2nc(N)c3c(cnn3C)c2c1)[C@@H]1COCc2cc(C(F)(F)F)ncc21 [Example 511, 4-amino-N,3-dimethyl-N-((4S)-7-(trifluoromethyl)-3,4-dihydro-1H-pyrano[4,3-c]pyridin-4-yl)-3H-pyrazolo[3,4-c]quinoline-8-carboxamide]	0.374	17.4
CN(C(=O)c1ccc2nc(N)c3c(cnn3C)c2c1)[C@@H]1COCc2nc(C(F)(F)F)ccc21 [Example 512, 4-amino-N,3-dimethyl-N-((5S)-2-(trifluoromethyl)-5,8-dihydro-6H-pyrano[3,4-b]pyridin-5-yl)-3H-pyrazolo[3,4-c]quinoline-8-carboxamide]	0.123	11.1
COc1ccc2c(n1)COC[C@H]2N(C)C(=O)c1cc2c(cc1F)nc(N)c1c2cnn1C [Example 513, 4-amino-7-fluoro-N-((5S)-2-methoxy-5,8-dihydro-6H-pyrano[3,4-b]pyridin-5-yl)-N,3-dimethyl-3H-pyrazolo[3,4-c]quinoline-8-carboxamide]	0.168	10.2
CN(C(=O)c1cc2c(cc1F)nc(N)c1c2cnn1C)[C@@H]1COCc2cc(C(F)(F)F)ccc21 [Example 514, 4-amino-7-fluoro-N,3-dimethyl-N-((4S)-7-(trifluoromethyl)-3,4-dihydro-1H-2-benzopyran-4-yl)-3H-pyrazolo[3,4-c]quinoline-8-carboxamide]	0.068	1.53
CN(C(=O)c1cc2c(cc1F)nc(N)c1c2cnn1C)[C@@H]1COCc2nc(C(F)(F)F)ccc21 [Example 515, 4-amino-7-fluoro-N,3-dimethyl-N-((5S)-2-(trifluoromethyl)-5,8-dihydro-6H-pyrano[3,4-b]pyridin-5-yl)-3H-pyrazolo[3,4-c]quinoline-8-carboxamide]	0.037	3.65
Cn1ncc2c3cc(C(=O)N(C4CC4)[C@@H]4COCc5nc(C(F)(F)F)ccc54)c(F)cc3nc(N)c21 [Example 516, 4-amino-N-cyclopropyl-7-fluoro-3-methyl-N-((5S)-2-(trifluoromethyl)-5,8-dihydro-6H-pyrano[3,4-b]pyridin-5-yl)-3H-pyrazolo[3,4-c]quinoline-8-carboxamide]	0.105	6.52
CC(C)CN(C(=O)c1cc2c(cc1F)nc(N)c1c2cnn1C)[C@@H]1COCc2nc(C(F)(F)F)ccc21 [Example 517, 4-amino-7-fluoro-3-methyl-N-(2-methylpropyl)-N-((5S)-2-(trifluoromethyl)-5,8-dihydro-6H-pyrano[3,4-b]pyridin-5-yl)-3H-pyrazolo[3,4-c]quinoline-8-carboxamide]	0.018	0.342
CC(C)CN(C(=O)c1cc2c(cc1F)nc(N)c1c2cnn1C)[C@H]1COCc2nc(C(F)(F)F)ccc21 [Example 518, 4-amino-7-fluoro-3-methyl-N-(2-methylpropyl)-N-((5R)-2-(trifluoromethyl)-5,8-dihydro-6H-pyrano[3,4-b]pyridin-5-yl)-3H-pyrazolo[3,4-c]quinoline-8-carboxamide]	0.965	9.33
CN(C(=O)c1cc2c(cc1Cl)nc(N)c1c2cnn1C)[C@@H]1COCc2nc(C(F)(F)F)ccc21 [Example 519, 4-amino-7-chloro-N,3-dimethyl-N-((5S)-2-(trifluoromethyl)-5,8-dihydro-6H-pyrano[3,4-b]pyridin-5-yl)-3H-pyrazolo[3,4-c]quinoline-8-carboxamide]	0.027	1.39
Cc1cc2nc(N)c3c(cnn3C)c2cc1C(=O)N(C)[C@@H]1COCc2nc(C(F)(F)F)ccc21 [Example 520, 4-amino-N,3,7-trimethyl-N-((5S)-2-(trifluoromethyl)-5,8-dihydro-6H-pyrano[3,4-b]pyridin-5-yl)-3H-pyrazolo[3,4-c]quinoline-8-carboxamide]	0.025	2.42
Cc1nn(C)c2c1c(N)nc1cnc(C(=O)N(C)[C@@H]3COCc4cc(C#N)ccc43)cc12 [Example 521, 4-amino-N-((4S)-7-cyano-3,4-dihydro-1H-2-benzopyran-4-yl)-N,1,3-trimethyl-1H-pyrazolo[4,3-c][1,7]naphthyridine-8-carboxamide]	0.168	14.1
CN(C(=O)c1ccc2nc(N)c3cnn(C)c3c2c1)[C@@H]1COc2cc(C3CC3)ccc21 [Example 615, 4-amino-N-((3S)-6-cyclopropyl-2,3-dihydro-1-benzofuran-3-yl)-N,1-dimethyl-1H-pyrazolo[4,3-c]quinoline-8-carboxamide]	0.014	1.31
CN(C(=O)c1ccc2nc(N)c3cnn(C)c3c2c1)[C@@H]1COc2cc(-c3ccn(C)c3)ccc21 [Example 616, 4-amino-N,1-dimethyl-N-((3S)-6-(1-methyl-1H-pyrrol-3-yl)-2,3-dihydro-1-benzofuran-3-yl)-1H-pyrazolo[4,3-c]quinoline-8-carboxamide]	0.032	3.67
CN(C(=O)c1ccc2nc(N)c3cnn(C)c3c2c1)[C@@H]1COc2cc(C3=CCCCC3)ccc21 [Example 617, 4-amino-N-((3S)-6-(1-cyclohexen-1-yl)-2,3-dihydro-1-benzofuran-3-yl)-N,1-dimethyl-1H-pyrazolo[4,3-c]quinoline-8-carboxamide]	0.055	1.65
CN(C(=O)c1ccc2nc(N)c3cnn(C)c3c2c1)[C@@H]1COc2cc(C3=CCOCC3)ccc21 [Example 618, 4-amino-N-((3S)-6-(3,6-dihydro-2H-pyran-4-yl)-2,3-dihydro-1-benzofuran-3-yl)-N,1-dimethyl-1H-pyrazolo[4,3-c]quinoline-8-carboxamide]	0.01	0.786
CN(C(=O)c1ccc2nc(N)c3cnn(C)c3c2c1)[C@@H]1COc2cc(C3=CCC(F)(F)CC3)ccc21 [Example 619, 4-amino-N-((3S)-6-(4,4-difluoro-1-cyclohexen-1-yl)-2,3-dihydro-1-benzofuran-3-yl)-N,1-dimethyl-1H-pyrazolo[4,3-c]quinoline-8-carboxamide]	0.017	0.649
CN(C(=O)c1ccc2nc(N)c3cnn(C)c3c2c1)[C@@H]1COc2cc(-c3cnn(C(F)(F)F)c3)ccc21 [Example 620, 4-amino-N,1-dimethyl-N-((3S)-6-(1-(trifluoromethyl)-1H-pyrazol-4-yl)-2,3-dihydro-1-benzofuran-3-yl)-1H-pyrazolo[4,3-c]quinoline-8-carboxamide]	0.006	0.634
CCN(C(=O)c1ccc2nc(N)c3c(c2c1)CO[C@@H]3C)[C@@H]1COCc2cc(C3CC3)ccc21 [Example 621, (3R)-4-amino-N-((4S)-7-cyclopropyl-3,4-dihydro-1H-2-benzopyran-4-yl)-N-ethyl-3-methyl-1,3-dihydrofuro[3,4-c]quinoline-8-carboxamide]	0.025	1.04
CN(C(=O)c1ccc2nc(N)c3cnn(C)c3c2c1)[C@@H]1COc2cc(-c3cn[nH]c3)ccc21 [Example 622, (S)—N-(6-(1H-pyrazol-4-yl)-2,3-dihydrobenzofuran-3-yl)-4-amino-N,1-dimethyl-1H-pyrazolo[4,3-c]quinoline-8-carboxamide]	0.014	0.877
CN(C(=O)c1ccc2nc(N)c3cnn(C)c3c2c1)[C@@H]1COc2cc(C3COC3)ccc21 [Example 625, 4-amino-N,1-dimethyl-N-((3S)-6-(3-oxetanyl)-2,3-dihydro-1-benzofuran-3-yl)-1H-pyrazolo[4,3-c]quinoline-8-carboxamide]	0.029	2.32
CN(C(=O)c1ccc2nc(N)c3cnn(C)c3c2c1)[C@@H]1COc2cc(-c3ccoc3)ccc21 [Example 626, 4-amino-N-((3S)-6-(3-furanyl)-2,3-dihydro-1-benzofuran-3-yl)-N,1-dimethyl-1H-pyrazolo[4,3-c]quinoline-8-carboxamide]	0.006	0.384
